Laboratory results taken from article PMC5622107, “Small molecule inhibition of cGAS reduces interferon expression in primary macrophages from autoimmune mice” (Nature Communications, 2017).
Like-named read-outs stand apart in the source and are kept apart here.

Columns and labels:
[1] = biological target: T1, mouse cGAS (Mus musculus, UniProt Q8C6L5); assay: RapidFire mass spectrometry (RF-MS) cGAS enzymatic assay, cGAMP product formation; assay type: biochemical; conditions: for IC50: read-out: IC50; for inhibition at 12.5 µM: compound 12.5 µM, read-out: % inhibition at 12.5 µM
T1 construct: recombinant full-length mouse cGAS in reaction buffer; His6-SUMO (N, cleaved yes); made in house; host or cells: E. coli BL21(DE3) RIL
Description: The liquid was collected at the well bottom using centrifugation for 30 s at 180×g. […] Plates were centrifuged for 30 s at 180×g to collect all liquid at the bottom of the wells. […] The reaction was stopped by addition of 65 µl of 0.5% (v/v) formic acid per well. The plates were centrifuged for 30 s at 180×g and sealed with a Velocity11 PlateLoc thermal plate sealer.
The solvent used for loading/washing process was an aqueous solution of 5 mM ammonium acetate, pH 10. […] Each sample of approximately 35 µl were aspirated from a 384-well plate and separated using a Graphitic carbon Type D cartridge. After each sample was loaded onto the cartridge it was washed for 4 s at 1.5 ml min^−1 using the aqueous solvent. ATP, GTP and cGAMP were eluted for 5 s using the organic solvent at a flow rate of 1.5 ml min^−1. The cartridge was then re-equilibrated with the aqueous solvent for 5 s at a flow rate of 1.5 ml min^−1. All samples were analyzed using a negative ionization mode in the mass spectrometer, with a gas temperature of 350 °C, nebulizer pressure of 35 psig, gas flow rate of 15 l min^−1. […] The Agilent RapidFire Integrator software was used to calculate the area under the curve (AUC) of the extracted ion counts for each analyte. Data points represent values of product formation. Catalytic rates expressed as percent product formation were calculated using the AUC of cGAMP and using the AUC’s of ATP and GTP to normalize for variations in the capacity of the solid phase extraction column during a screening run, as shown in the following formula: product formation (%) = [(AUCcGAMP × 100)/(AUCcGAMP + ½ AUCATP + ½ AUCGTP)].
To determine the percent inhibition of mouse cGAS the data was normalized against the positive control (column 24) and negative control (column 23). […] The quality of the screen was assessed by Z′ factor[57] calculated as follows: Z′ = 1−[3∗(standard deviation positive control + standard deviation negative control)/(average positive control—average negative control)].

[2] = tested on: IFNB1-Luc activity; assay: Interferon induction cellular assay (IFNB1-Luc) of the original manuscript version, reported in the point-by-point response; assay type: cell-based; conditions: original Fig. 5a, compared with vehicle
[3] = tested on: 45-bp dsDNA; assay: DNA intercalation: acridine orange displacement from dsDNA by fluorescence polarization; assay type: binding; conditions: Supplementary Table 2; for Polarization: compound 30 µM
Description: Ten microliters of HEN buffer (10 mM HEPES pH 7.5, 1 mM EDTA pH 7.5, 100 mM NaCl) were dispensed per well using a Thermo Multidrop Combi dispenser (Thermo Scientific). The liquid was collected at the well bottom using centrifugation for 30 s at 180×g. […] The final concentration of compounds in the assay was 30 µM. […] The liquid was collected at the well bottom using centrifugation for 30 s at 180×g. […] The liquid was collected at the well bottom using centrifugation for 30 s at 180 × g and the plates were incubated for 30 min. Mitoxantrone, a known DNA intercalator was used at 50 µM as a positive control, while DMSO alone was used as negative control. FP was measured using a Biotek Synergy Neo plate reader. […] All FP values are expressed in millipolarization (mP) units. The mP values were calculated using the equation mP = 1000 × [(I S−I SB)−(I P−I PB)]/[I S—I SB) + (I P−I PB)], where I S and […] to the parallel and perpendicular emission intensity, respectively, and I SB and I SP corresponds to parallel emission intensity perpendicular emission intensity of the buffer, respectively. The experimental G-factor, defined as G = I S/I P, was set to 1.0 in all experiments.

[4] = tested on: RAW macrophage cells stimulated with 5′ppp-HP20 RNA, Pam3CSK4, poly(I:C), LPS or recombinant Ifnb; assay: Selectivity: RAW macrophages stimulated with non-DNA immunogenic ligands (luciferase reporter or Il-6 qRT-PCR); assay type: cell-based, mouse; conditions: compound at EC75; 5′ppp-HP20 RNA, Pam3CSK4, poly(I:C), LPS, Ifnb
Description: (§1) The sequence and annealing conditions of the dsDNA used is described above. Typically, 0.4 µg or 0.6 µg of dsDNA was used to stimulate RAW-Lucia ISG-KO-TREX1/ISG-KO-cGAS or RAW-Lucia ISG cells, respectively, which equated to 90% of maximal luciferase activity observed. dsDNA stimulation of RAW macrophages and subsequent luciferase measurements were performed with or without the addition of small molecules at indicated concentrations in each figure, or with DMSO as vehicle control. For the dose curve experiments, serial dilutions of inhibitors were applied to 6.7 × 10^5 cells, plated in 24-well dishes, and co-stimulated with 0.4 µg of dsDNA. In subsequent experiments using inhibitors in RAW cells, the small molecules were used at concentrations representing the derived EC75 values, while co-stimulated with one of the following: 0.4 µg dsDNA, 50 nM 5′ppp-HP20 hairpin RNA (a kind gift from Dr Anna Pyle, Yale University; sequence located in Supplementary Table 5), 10 µM cGAMP, or 100 U ml^−1 murine recombinant Ifnb (R&D Systems). dsDNA was transfected using Lipofectamine LTX. 5′ppp-HP20 RNA was transfected using Lipofectamine 2000. Cells were harvested 24 h post-transfection, washed with PBS, and lysed in 1× Luciferase Cell Lysis Buffer (Pierce).
(§2) The minimum numbers of biological and technical replicates for the luciferase assays were two and three, respectively. Analysis of luminescence values were evaluated for outliers (one standard deviation above and below the mean) for each biological replicate, and the resulting means were used to generate graphs in GraphPad Prism (v. 7.0c); where applicable, an unpaired t-test with Welch’s correction was used to compare the results of each individual compound to dsDNA or other stimulant. The experimental variances observed within control samples (untreated or vehicle) and treated samples were similar.
The small molecules were used at concentrations representing the EC75 values and were co-stimulated with either 200 ng Pam3CSK4 (Invivogen), 25 µg poly(I:C) or 100 ng lipopolysaccharide (Sigma-Aldrich) at the cell counts and conditions previously described for the cellular luciferase assays. Cells were harvested 24 h post-transfection, washed with PBS, and RNA was extracted using Trizol (Ambion) and chloroform (Sigma-Aldrich). In all, 1–2 µg of total RNA was reverse-transcribed using random hex primers and SuperScript III (Life Technologies) into cDNA. […] The expression of mRNAs […] murine Actb1 and Il-6 were measured (see Supplementary Table 5 for primer sequences used). Target C T values were normalized to Actb1 C T values and used to calculate ΔC T. mRNA expression of target genes were then calculated using the ΔΔC T method (2^ΔΔCT). Expression values were analyzed as described in the method for cellular luciferase assays.

[5] = tested on: RAW 264.7; assay: Cytotoxicity, CellTiter-Glo ATP quantitation at 72 h; assay type: cell-based
Description: Small-molecule compounds were serially diluted to concentrations spanning the range tested in the response curves were added to 6.7 × 10^5 RAW-Blue macrophages plated 16 h prior in 96-well dishes, then harvested 72 h after compound addition. ATP was measured using CellTiter Glo Viability Assay (Promega) using 50 µM Tamoxifen (Sigma) as a positive control for cytotoxicity. Viability values were generated using vehicle (DMSO) or the first dose (RU.521) as 100% and Tamoxifen as 0%. Outliers were removed as described previously.

[6] = tested on: cGAS activity in dsDNA-stimulated RAW macrophages; assay: Cellular luciferase assay, interferon-responsive reporter in dsDNA-stimulated RAW macrophages; assay type: cell-based; conditions: Mus musculus, Macrophage, dsDNA-activated RAW cells
Description: as §1, §2

[7] = biological target: cGAS (cyclic GMP-AMP synthase) (mouse, UniProt Q8C6L5 147-507); assay: X-ray crystallography, 2.13 A; RU.365 in active site; Co-crystallization; crystallization buffer not in the material; protein stock 20 mM Tris-HCl pH 7.5, 300 mM NaCl, 1 mM DTT. ITC values are for inhibitors, and t; conditions: protein: recombinant; tags: His6-SUMO removed by ULP1; chain copies: 2; 16 bp plus 1-nt 5' overhang at each end
[8] = Fig. 1e, four prioritized screening hits, confirmed with independent lots of compound
[9] = Supplementary Table 2, batch of compounds stored in the screening library

T1 sequence (Q8C6L5 whole entry): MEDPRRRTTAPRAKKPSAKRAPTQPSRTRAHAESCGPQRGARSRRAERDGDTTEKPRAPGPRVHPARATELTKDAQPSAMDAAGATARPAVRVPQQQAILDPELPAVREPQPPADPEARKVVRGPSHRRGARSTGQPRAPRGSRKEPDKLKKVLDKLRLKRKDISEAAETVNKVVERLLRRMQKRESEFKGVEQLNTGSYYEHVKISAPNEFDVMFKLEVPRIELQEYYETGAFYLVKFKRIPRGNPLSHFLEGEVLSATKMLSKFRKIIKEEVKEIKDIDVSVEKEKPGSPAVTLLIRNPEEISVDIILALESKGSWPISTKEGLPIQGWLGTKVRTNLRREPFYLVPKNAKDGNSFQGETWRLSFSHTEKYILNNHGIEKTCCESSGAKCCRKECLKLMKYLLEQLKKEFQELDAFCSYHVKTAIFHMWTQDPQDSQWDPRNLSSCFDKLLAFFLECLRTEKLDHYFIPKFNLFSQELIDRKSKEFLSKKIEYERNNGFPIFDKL
Chain of cGAS (cyclic GMP-AMP synthase) (Q8C6L5 147-507): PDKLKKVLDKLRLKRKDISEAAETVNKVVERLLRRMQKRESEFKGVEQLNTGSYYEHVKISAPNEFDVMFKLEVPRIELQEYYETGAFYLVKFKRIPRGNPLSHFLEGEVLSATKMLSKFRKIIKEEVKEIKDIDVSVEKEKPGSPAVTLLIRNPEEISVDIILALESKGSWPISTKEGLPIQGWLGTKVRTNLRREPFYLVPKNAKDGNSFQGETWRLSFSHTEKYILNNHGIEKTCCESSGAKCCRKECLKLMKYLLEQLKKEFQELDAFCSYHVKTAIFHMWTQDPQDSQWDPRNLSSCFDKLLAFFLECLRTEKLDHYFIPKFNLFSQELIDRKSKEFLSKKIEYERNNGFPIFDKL

| IC50 [1, 8] [nM] | IC50 [1, 9] [nM] | inhibition at 12.5 µM ([1]; Supplementary Table 2) [%] | Polarization [3] [mP] | Molecule | IFNB1-Luc activity [2] | further results |
| --- | --- | --- | --- | --- | --- | --- |
| 30 | 60 | 88 | 269 | O=C1N=C(N2CCCCC2)SC1=C1C(=O)Nc2ccccc21 [RU100840] | mild activation | % intercalation at 30 µM ([3]; acridine orange displacement compared to mitoxantrone): -8.9% |
| 70 | 170 | 95 | 276 | O=C(COc1ccc(Cl)c2ccccc12)Nc1ncccc1O [RU191752] | mild activation |  |
|  |  |  |  | Cc1nn(-c2nc3ccccc3s2)c(O)c1C1OC(=O)c2ccccc21 (stereo not drawn) [RU281332] |  | IC50 ([1]; Supplementary Table 3, analogs more potent than RU166365): 1790 nM; effect of structural modification on cGAS inhibitory potency ([1]; compared with RU.365): did not change the potency; suppression of activation by immunogenic stimuli other than dsDNA [4]: inhibited the activation of cells by most of the immunogenic ligands tested; LD50 over cellular IC50 [5]: 3.5 fold; LD50 ([5]; RAW macrophages, 72 h, percent viability, listed as RU.332): 48 µM; IC50 [6]: 13600 nM |
|  |  |  |  | crystal dsDNA (dsDNA) DNA 1: AAATTGCCGAAGACGAA DNA 2: TTTCGTCTTCGGCAATT |  | binding result [7]: binds |
